Laboratory results reported in ChEMBL document CHEMBL1201862, “PubChem BioAssay data set” (2004).
Activity calls are given as the source filed them.

What was measured:
INS1 = assay: INS-1E survival protection against cytokine death – cell-based, luminescence, retest, dose response (AID 449756); type: functional; settings: Rattus norvegicus;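 further: cell death triggered by IL-1 beta plus TNF-alpha plus IFN-gamma mixture; protective hits raise ATP signal compared with cytokine alone wells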
[1] = target: T1, Microphthalmia-associated transcription factor (Homo sapiens, UniProt O75030); assay: reducers of TRPM1 reporter luminescence, concentration series – cell-based, SK-MEL-5, cherry-picked, set 3, MITF inhibitor project, dose response (AID 493073); type: functional;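 further: SK-MEL-5 melanoma cells with luciferase driven by the MITF target TRPM1 promoter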
T1 sequence (O75030 whole entry): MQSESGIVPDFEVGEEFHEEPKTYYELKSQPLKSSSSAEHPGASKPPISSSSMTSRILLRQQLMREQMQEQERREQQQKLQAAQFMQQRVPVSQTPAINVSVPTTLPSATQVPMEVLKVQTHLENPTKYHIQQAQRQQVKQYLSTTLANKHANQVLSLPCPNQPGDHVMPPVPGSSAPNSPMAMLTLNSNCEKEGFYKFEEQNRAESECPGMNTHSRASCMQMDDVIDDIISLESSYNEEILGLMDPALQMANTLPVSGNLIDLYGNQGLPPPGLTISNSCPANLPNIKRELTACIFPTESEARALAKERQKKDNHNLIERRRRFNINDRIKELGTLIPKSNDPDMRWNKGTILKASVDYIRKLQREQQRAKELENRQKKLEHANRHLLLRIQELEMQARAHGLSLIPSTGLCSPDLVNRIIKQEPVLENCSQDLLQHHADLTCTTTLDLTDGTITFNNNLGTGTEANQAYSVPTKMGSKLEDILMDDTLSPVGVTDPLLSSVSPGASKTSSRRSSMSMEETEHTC

[2] = Trypanosoma cruzi growth suppression in host cells – NIH3T3 host cells, beta-gal luminescence, confirmation (AID 2044); type: functional, cell-based;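 further: intracellular parasites grown in NIH/3T3 mouse fibroblasts as host cells; luminescent beta-galactosidase reporter signal from transgenic T. cruzi replicating inside host cells; inhibitors lower the luminescence signal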
[3] = viability of PTEN-deleted HCT116 cells – cell-based, HCT116 PTEN knockout, dose response (AID 1047); type: functional;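 further: HCT116 colon tumor cells with PTEN knocked out; cells exposed to compound for 60 hours before readout; potency for loss of cell viability measured by luminescence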
[4] = NIH3T3 cell viability loss – ATP luminescence, mouse fibroblasts, counter-screen, dose response (AID 2010); type: functional, cell-based;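 further: cells exposed to compound for about 90 hours before reading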
[5] = viability of HCT116 lacking mutant beta-catenin – cell-based, human colon tumor, dose response (AID 1045); type: functional;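 further: HCT116 colon tumor cells with beta catenin knocked out; cells exposed to compound for 60 hours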
Caspase-6 = target: T2, Caspase-6 (Homo sapiens, UniProt P55212); assay: inhibition of CASP6 peptide cleavage – biochemical, VEID-R110 fluorescence, cherry-pick, dose response (AID 720632)
T2 sequence (P55212 whole entry): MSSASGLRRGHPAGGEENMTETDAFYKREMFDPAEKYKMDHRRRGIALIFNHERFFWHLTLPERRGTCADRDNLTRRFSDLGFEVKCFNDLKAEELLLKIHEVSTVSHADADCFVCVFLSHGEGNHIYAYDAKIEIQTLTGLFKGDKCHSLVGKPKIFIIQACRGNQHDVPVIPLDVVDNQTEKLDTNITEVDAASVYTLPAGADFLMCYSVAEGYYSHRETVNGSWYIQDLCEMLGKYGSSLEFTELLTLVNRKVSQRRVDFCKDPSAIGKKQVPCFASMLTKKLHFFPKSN

[6] = target: Induced myeloid leukemia cell differentiation protein Mcl-1 (Homo sapiens, UniProt Q07820); type: functional
Chain of Induced myeloid leukemia cell differentiation protein Mcl-1 (Q07820 whole entry): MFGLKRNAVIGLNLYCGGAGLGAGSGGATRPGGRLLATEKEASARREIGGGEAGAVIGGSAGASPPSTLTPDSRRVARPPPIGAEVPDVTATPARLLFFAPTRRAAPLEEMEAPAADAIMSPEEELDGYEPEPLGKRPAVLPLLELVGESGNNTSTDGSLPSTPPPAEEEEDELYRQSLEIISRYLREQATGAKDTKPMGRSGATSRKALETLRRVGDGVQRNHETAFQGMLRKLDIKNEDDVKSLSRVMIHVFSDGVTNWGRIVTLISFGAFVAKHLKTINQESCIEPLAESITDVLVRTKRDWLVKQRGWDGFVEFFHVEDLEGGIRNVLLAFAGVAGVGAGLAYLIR

Trypsin = Trypsin (Sus scrofa, UniProt P00761); assay: trypsin protease activity blockade – biochemical, quenched peptide fluorescence, cherry-pick, selectivity assay for Rce1 protease inhibitor project, dose response (AID 488789)
Chain of Trypsin (P00761 whole entry): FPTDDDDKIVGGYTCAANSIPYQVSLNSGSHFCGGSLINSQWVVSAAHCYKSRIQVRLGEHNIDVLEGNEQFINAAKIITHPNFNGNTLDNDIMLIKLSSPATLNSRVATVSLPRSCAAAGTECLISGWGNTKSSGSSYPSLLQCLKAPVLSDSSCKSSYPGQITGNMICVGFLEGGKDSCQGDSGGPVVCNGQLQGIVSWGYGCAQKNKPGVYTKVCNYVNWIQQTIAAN

[7] = target: T3, Short transient receptor potential channel 4 (Mus musculus, UniProt Q9QUQ5); assay: calcium entry via TRPC4 opening agents – cell-based, HEK293 TRPC4/mu-opioid, Fluo-4 calcium, dose response (AID 434937); type: functional
T3 sequence (Q9QUQ5 whole entry): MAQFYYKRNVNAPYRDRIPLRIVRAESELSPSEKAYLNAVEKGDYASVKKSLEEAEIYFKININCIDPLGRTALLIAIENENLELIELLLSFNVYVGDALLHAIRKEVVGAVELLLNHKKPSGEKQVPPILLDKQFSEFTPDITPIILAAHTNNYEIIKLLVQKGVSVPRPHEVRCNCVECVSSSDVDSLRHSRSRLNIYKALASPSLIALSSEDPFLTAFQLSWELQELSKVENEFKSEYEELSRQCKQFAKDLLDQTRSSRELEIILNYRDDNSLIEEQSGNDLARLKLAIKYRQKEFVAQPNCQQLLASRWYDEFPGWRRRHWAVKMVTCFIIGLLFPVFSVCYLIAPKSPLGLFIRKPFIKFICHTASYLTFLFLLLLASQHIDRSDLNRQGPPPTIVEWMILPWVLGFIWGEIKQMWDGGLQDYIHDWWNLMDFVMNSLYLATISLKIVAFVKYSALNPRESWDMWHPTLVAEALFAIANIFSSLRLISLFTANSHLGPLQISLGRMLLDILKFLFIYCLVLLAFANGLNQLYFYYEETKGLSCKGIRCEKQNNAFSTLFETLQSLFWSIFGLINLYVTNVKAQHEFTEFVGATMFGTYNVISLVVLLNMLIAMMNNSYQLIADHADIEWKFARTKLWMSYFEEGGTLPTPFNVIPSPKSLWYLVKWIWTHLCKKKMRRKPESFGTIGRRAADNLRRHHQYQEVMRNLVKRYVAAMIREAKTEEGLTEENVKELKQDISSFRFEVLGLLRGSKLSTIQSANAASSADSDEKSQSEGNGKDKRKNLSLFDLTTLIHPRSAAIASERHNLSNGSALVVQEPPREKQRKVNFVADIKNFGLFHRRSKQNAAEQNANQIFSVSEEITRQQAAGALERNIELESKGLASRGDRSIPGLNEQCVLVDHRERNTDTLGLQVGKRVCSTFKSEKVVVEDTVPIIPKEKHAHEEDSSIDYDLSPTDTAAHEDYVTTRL

[8] = Dd2 malaria parasite growth inhibition potency – SYBR Green, dry powder samples, dose response (AID 1159566); type: functional, cell-based;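 further: potency for growth inhibition with lower SYBR green DNA signal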
[9] = P. falciparum Dd2 growth inhibitors, dose response, SYBR Green, cherry-picked samples (AID 1159567); type: functional, cell-based
[10] = growth inhibition of yeast DHODH-expressing 3D7 parasites – SYBR Green, dry powder samples, dose response (AID 1159570); type: functional, cell-based;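 further: parasite growth measured after 72 hours of compound exposure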
[11] = growth inhibition of PfATP4-mutant resistant parasites – NITD609-resistant line, SYBR Green, dry powder, dose response (AID 1159571); type: functional, cell-based;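 further: parasites synchronized at ring stage by sorbitol before testing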
[12] = A cytotoxicity screen of small molecule inhibitors of the PhoP region in Salmonella typhi identified in the primary screen. [Related pubchem assays: 1850, 1864, 1985 ]; type: functional
[13] = target: T4, Ubiquitin-conjugating enzyme E2 N (Homo sapiens, UniProt P61088); type: functional;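 further: Dose-response confirmation in a TR-FRET assay detecting UBC13-driven polyubiquitin chain formation, inhibition measured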
T4 sequence (P61088 whole entry): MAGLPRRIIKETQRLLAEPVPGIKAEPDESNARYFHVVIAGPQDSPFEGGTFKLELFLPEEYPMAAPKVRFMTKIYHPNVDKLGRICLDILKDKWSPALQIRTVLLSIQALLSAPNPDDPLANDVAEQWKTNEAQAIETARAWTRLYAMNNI

[14] = Luminescence Cell-Based Dose Retest to Confirm Inhibitors of Cancer Stem Cells. [Related pubchem assays (depositor defined):AID2717, AID2721]; type: functional; settings: Homo sapiens
Cytochrome P450 2C9 = Cytochrome P450 2C9 (Homo sapiens, UniProt P11712)
[15] = target: Peroxisome proliferator-activated receptor gamma/Nuclear receptor coactivator 2 (Homo sapiens, UniProt P37231); type: functional;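 further: agonist potency for raising coactivator recruitment to the receptor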
[16] = target: Peroxisome proliferator-activated receptor gamma/Nuclear receptor coactivator 1 (Homo sapiens, UniProt P37231); type: functional;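 further: agonist potency as compounds enhance coactivator SRC-1 recruitment to PPARgamma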
Chain of Peroxisome proliferator-activated receptor gamma/Nuclear receptor coactivator 1 (P37231 whole entry): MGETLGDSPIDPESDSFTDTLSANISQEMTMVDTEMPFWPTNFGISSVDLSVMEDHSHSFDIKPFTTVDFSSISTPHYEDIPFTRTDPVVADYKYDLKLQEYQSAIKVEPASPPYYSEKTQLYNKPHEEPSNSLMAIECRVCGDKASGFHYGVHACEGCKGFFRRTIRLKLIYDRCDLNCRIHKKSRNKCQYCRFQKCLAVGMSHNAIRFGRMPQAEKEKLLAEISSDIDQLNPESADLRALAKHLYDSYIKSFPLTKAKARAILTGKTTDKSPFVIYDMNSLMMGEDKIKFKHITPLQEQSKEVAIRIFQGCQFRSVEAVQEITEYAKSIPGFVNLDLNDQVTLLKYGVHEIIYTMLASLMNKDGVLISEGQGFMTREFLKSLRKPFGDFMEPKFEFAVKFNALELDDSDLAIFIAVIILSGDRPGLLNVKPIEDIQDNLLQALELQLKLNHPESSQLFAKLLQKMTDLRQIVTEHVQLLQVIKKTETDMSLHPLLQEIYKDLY
Chain of Peroxisome proliferator-activated receptor gamma/Nuclear receptor coactivator 1 (Q15788 whole entry, further chain): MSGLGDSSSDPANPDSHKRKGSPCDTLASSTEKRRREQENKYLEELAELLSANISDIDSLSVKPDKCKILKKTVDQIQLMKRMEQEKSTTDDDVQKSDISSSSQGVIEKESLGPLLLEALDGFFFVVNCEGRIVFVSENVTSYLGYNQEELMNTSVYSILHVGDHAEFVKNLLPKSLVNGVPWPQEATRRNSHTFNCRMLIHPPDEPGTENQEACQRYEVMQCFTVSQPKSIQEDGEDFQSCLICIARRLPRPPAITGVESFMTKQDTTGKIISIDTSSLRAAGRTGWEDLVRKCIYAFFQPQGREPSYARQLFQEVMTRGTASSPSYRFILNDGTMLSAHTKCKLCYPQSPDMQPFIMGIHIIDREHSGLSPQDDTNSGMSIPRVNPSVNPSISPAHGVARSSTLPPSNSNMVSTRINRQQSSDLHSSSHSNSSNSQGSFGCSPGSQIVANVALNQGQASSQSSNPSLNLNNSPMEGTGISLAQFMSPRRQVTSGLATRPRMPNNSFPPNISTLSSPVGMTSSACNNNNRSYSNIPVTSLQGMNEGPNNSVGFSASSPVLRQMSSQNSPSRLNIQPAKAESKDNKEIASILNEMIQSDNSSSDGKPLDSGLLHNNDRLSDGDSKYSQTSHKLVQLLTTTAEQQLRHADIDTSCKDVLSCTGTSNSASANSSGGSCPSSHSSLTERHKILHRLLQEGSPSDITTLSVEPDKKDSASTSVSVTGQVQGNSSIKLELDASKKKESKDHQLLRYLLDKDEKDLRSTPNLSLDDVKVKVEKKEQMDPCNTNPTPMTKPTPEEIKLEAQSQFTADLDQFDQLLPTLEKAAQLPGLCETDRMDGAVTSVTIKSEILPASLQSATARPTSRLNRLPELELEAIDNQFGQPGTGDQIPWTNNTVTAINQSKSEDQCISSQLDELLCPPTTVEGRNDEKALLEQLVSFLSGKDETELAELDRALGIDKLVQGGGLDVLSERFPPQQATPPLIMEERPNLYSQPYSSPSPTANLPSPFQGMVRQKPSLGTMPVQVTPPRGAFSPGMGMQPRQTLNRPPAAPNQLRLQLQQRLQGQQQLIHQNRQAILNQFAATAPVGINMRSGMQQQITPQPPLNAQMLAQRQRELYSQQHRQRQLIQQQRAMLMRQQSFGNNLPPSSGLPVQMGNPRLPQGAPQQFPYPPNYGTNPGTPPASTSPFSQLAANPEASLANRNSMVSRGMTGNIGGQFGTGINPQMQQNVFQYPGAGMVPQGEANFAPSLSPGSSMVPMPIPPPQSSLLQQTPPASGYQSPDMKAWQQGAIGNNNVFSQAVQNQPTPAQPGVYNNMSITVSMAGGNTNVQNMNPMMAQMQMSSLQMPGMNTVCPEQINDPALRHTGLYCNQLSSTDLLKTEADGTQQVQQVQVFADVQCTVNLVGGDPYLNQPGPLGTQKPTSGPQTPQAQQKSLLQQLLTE

[17] = target: Peroxisome proliferator-activated receptor gamma/Nuclear receptor coactivator 3 (Homo sapiens, UniProt P37231); type: functional;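 further: agonist potency for raising coactivator recruitment to the receptor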
Chain of Peroxisome proliferator-activated receptor gamma/Nuclear receptor coactivator 3 (P37231 whole entry): as the sequence (P37231 whole entry) above
Chain of Peroxisome proliferator-activated receptor gamma/Nuclear receptor coactivator 3 (Q9Y6Q9 whole entry, further chain): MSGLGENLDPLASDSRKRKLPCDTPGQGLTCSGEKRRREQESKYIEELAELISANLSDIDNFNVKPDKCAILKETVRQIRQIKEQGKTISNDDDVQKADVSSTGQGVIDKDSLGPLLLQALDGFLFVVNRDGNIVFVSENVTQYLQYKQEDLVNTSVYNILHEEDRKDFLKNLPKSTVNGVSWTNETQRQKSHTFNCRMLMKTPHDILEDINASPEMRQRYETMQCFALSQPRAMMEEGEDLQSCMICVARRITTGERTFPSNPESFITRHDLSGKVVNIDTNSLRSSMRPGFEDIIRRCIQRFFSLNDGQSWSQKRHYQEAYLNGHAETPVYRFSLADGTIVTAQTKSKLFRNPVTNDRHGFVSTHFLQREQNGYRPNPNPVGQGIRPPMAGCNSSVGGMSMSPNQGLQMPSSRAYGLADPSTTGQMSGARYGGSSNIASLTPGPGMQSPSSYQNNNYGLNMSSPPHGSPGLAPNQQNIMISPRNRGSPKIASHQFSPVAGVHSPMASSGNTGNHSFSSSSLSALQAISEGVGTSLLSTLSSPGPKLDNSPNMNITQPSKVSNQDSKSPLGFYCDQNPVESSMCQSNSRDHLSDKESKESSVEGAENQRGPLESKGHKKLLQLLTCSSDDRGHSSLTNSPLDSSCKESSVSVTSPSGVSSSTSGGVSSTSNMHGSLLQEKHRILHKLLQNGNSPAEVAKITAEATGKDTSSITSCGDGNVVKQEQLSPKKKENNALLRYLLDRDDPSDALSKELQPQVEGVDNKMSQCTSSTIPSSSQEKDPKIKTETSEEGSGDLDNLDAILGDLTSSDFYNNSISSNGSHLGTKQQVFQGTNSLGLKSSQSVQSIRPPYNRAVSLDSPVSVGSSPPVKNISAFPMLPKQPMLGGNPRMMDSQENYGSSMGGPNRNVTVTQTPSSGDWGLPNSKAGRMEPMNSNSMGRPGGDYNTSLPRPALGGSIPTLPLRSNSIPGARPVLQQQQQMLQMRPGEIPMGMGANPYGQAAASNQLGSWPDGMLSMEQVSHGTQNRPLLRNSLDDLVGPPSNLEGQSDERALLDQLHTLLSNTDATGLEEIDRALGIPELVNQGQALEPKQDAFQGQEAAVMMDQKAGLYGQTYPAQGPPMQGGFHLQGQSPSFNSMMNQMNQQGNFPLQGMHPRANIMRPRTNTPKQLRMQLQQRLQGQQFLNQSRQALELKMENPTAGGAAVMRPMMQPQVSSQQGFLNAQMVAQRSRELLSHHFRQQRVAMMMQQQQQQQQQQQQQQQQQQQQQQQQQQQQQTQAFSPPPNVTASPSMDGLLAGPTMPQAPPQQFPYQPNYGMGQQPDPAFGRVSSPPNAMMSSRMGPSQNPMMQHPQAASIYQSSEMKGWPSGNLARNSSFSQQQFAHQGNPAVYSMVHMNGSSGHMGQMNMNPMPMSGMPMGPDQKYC

Cytochrome P450 3A4 = Cytochrome P450 3A4 (Homo sapiens, UniProt P08684);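 further: CYP3A4 tested as one member of a cytochrome P450 panel screen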
[18] = THP-1 cell cytotoxicity, dose response, cytotoxicity control for non-replicating M. tuberculosis project (AID 489025); type: functional
cells = type: functional
[19] = Vero E6 cell cytotoxicity, dose response, cytotoxicity control for non-replicating M. tuberculosis project, secondary assay (AID 492998); type: functional, VeroE6; settings: Vero C1008
[20] = target: T5, Sentrin-specific protease 8 (Homo sapiens, UniProt Q96LD8); type: functional
T5 sequence (Q96LD8 whole entry): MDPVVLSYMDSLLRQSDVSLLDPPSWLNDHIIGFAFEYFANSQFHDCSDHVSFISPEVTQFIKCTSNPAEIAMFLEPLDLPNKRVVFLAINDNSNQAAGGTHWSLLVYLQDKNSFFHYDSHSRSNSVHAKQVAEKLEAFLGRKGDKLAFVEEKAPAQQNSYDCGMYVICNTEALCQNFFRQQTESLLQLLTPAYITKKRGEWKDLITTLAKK

[21] = target: T5, Sentrin-specific protease 8; type: functional; remark: listed apart in the source
[22] = HEK-293T viability loss after treatment – luminescence, T-cell screen hits, cytotoxicity control for TCR NF-kB inhibitor project, dose response (AID 489026); type: functional, cell-based;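 further: cells exposed to compound about 14 hours before the viability readout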
Paired box protein Pax-8 = Paired box protein Pax-8 (Homo sapiens, UniProt Q06710); assay: PAX8 transcriptional activity inhibition in RMG-I – RMG-I cells, luciferase, cherry-pick, dose response (AID 687027); type: functional, cell-based;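 further: luciferase reporter driven by Pax8 target thyroperoxidase promoter measured by SteadyGlo luminescence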
Chain of Paired box protein Pax-8 (Q06710 whole entry): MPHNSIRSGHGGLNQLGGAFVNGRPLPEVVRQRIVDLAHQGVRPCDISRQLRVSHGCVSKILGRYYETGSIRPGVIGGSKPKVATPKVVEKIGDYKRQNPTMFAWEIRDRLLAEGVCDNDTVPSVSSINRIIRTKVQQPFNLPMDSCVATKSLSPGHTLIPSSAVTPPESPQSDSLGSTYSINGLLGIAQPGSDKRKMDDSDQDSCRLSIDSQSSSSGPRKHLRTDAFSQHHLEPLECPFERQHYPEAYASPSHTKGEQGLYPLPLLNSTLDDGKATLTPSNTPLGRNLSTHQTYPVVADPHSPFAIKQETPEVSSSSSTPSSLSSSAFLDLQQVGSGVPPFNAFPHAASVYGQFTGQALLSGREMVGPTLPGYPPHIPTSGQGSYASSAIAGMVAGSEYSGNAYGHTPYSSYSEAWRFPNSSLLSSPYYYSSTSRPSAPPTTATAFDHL

O=C(N/N=C/c1ccc([N+](=O)[O-])s1)C(O)c1ccccc1 (stereo not drawn)
AC50 (INS1): 7.84 µM (active) | AC50 [1]: 4.48 µM (active) | EC50 [2]: 0.306 µM (active) | EC50 [3]: 5.9 µM (active) | EC50 [4]: > 60 µM (inconclusive) | EC50 [5]: 5.56 µM (active)

O=C(O)C1Oc2cc3ccccc3cc2O1
AC50 (Caspase-6): 8.44 µM (active)

N=c1oc2cc(O)ccc2cc1C(=O)Nc1nc2ccccc2s1
IC50 [6]: 3.21 µM (active) | AC50 (Trypsin): 12.4 µM (active)

O=S(=O)(c1ccccc1)c1nnn2c1nc(NC1CCN(Cc3ccccc3)CC1)c1cc(Cl)ccc12
EC50 [7]: 6.68 µM (active)

O=C(Nc1ccccc1F)N1CCCCN2[C@H](CO)[C@H](c3ccc(C#Cc4cccnc4)cc3)[C@@H]2C1
AC50 [8]: 0.507 µM (active) | AC50 [9]: 0.86 µM (active) | AC50 [10]: 0.452 µM (active) | AC50 [11]: 0.504 µM (active)

Cc1cccc(N2CCN(C(=O)C3CCN(c4nnc(-n5cccc5)s4)CC3)CC2C)c1 (stereo not drawn)
EC50 [12]: > 50 µM (active)

CC[N+](C)(CC)CCC[n+]1c(-c2ccccc2)c2cc(N)ccc2c2ccc(N)cc21 [PROPIDIUM]
EC50 [12]: > 50 µM (active)

FC(F)(F)c1cc(CCN2CCNC[C@@H]2Cc2ccccc2)cc(C(F)(F)F)c1
AC50 [1]: 12.3 µM (active) | IC50 [13]: > 20 µM (inactive) | AC50 [14]: 13.3 µM (active)

O=S(=O)(c1ccccc1)c1cnn2c(C(F)(F)F)cc(-c3ccc(F)cc3)nc12
AC50 (Cytochrome P450 2C9): inconclusive | EC50 [15]: > 79.4 µM (not active) | AC50 (Trypsin): 20.2 µM (active) | EC50 [16]: > 79.4 µM (not active) | EC50 [17]: > 79.4 µM (not active) | AC50 (Cytochrome P450 3A4): 3.16 µM (inconclusive)

CC(=O)c1c(C)[nH]c(C(=O)OCC(=O)NCC(C)C)c1C
EC50 [12]: > 50 µM (active)

CCOC(=O)COc1ccc(/C=C2\NC(=S)N(CC)C2=O)cc1
CC50 [18]: > 40 µM (active) | IC50 (cells): 3.34 µM (active) | EC50 [15]: > 79.4 µM (not active) | EC50 [16]: > 79.4 µM (not active) | EC50 [17]: > 79.4 µM (not active)

CN1CCC(OC(=O)c2ccc(Cl)cc2Cl)CC1
EC50 [2]: 0.127 µM (active) | EC50 [4]: > 60 µM (not active) | EC50 [12]: > 50 µM (active)

Brc1ccc(/C=N/c2ccc(Nc3ccccc3)cc2)s1
EC50 [15]: > 79.4 µM (not active) | EC50 [16]: > 79.4 µM (not active) | EC50 [17]: > 79.4 µM (not active)

CCOc1cc(-c2nnc(NC(=O)c3ccco3)o2)cc(OCC)c1OCC
IC50 (cells): 5.12 µM (active) | CC50 [19]: > 20 µM (active)

O=C1Cc2ccccc2C(=O)N1Cc1cccc(Cl)c1
IC50 [20]: > 100 µM (inactive) | AC50 (Caspase-6): 13 µM (active) | IC50 [21]: 0.528 µM (active)

Cc1ccc(/C=N/NC(=O)C2COc3ccccc3O2)s1 (stereo not drawn)
CC50 [18]: 4.18 µM (active) | IC50 (cells): 7.88 µM (active) | IC50 [22]: > 80 µM (inactive) | CC50 [19]: 8.33 µM (active)

CCCCNC(=O)CSc1nc2ccccc2c(=O)n1Cc1ccc2c(c1)OCO2
EC50 [15]: > 79.4 µM (not active) | EC50 [16]: > 79.4 µM (not active) | EC50 [17]: > 79.4 µM (not active)

O=C(COC(=O)c1ccc([N+](=O)[O-])o1)NC1CCS(=O)(=O)C1 (stereo not drawn)
IC50 [20]: 9.9 µM (active) | AC50 (Caspase-6): 39.7 µM (active) | IC50 [21]: 8.96 µM (active)

O=C(Nc1ccc(S(=O)(=O)NC2=NCCCCC2)cc1)c1ccc([N+](=O)[O-])s1
AC50 [1]: 5.11 µM (active) | EC50 [2]: 0.201 µM (active) | EC50 [4]: 8.46 µM (active) | AC50 (Paired box protein Pax-8): 5.3 µM (active)

O=C(C1CCCN(Cc2ccccc2)C1)N1CCc2ccccc2C1 (stereo not drawn)
EC50 [7]: 0.133 µM (active)

CCN(Cc1ccccc1)S(=O)(=O)c1ccc(C(=O)N(CCCN(C)C)c2nc3c(F)cccc3s2)cc1
EC50 [7]: 2.11 µM (active)
